Drawing on ChEMBL document CHEMBL5726054, “Substituted bicyclic compounds” (2019), this text covers EC50 for three molecules.

Each structure is given as a SMILES string.

Chain of Sphingosine 1-phosphate receptor 1 (Homo sapiens) (P21453 whole entry, looked up): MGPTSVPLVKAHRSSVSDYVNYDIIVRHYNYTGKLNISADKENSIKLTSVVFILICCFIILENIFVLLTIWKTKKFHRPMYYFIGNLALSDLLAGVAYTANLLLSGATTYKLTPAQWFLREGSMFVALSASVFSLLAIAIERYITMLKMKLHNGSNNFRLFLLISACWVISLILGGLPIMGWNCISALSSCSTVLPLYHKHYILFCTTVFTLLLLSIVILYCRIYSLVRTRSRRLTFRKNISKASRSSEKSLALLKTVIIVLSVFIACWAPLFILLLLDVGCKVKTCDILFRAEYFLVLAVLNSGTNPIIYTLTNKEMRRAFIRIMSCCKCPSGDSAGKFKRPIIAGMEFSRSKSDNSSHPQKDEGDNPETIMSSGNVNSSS

This test addresses Sphingosine 1-phosphate receptor 1 (Homo sapiens) (UniProt P21453). Put plainly: hS1P1 ERK Phosphorylation (S1P1 pERK): hS1P1/CHO cells were plated into BD Amine 384-well plates the day before the assay. On the day of the assay, growth medium was removed and replaced with serum-free medium (Ham's F-12 Invitrogen) and incubated for 2 hours. Test compounds pre-diluted in HBSS (Gibco)/20 mM HEPES (Gibco) were transferred to the cell plates and incubated for 7 minutes at 37° C. ….
With `CCCCCCC1CCc2cc(C3CCC(N)(COP(=O)(O)O)C3)ccc2O1` (stereo not drawn), the EC50 entry is “in the range around 0.055 µM”. For the molecule `CCCC/C=C/[C@@H]1CCc2cc([C@H]3CC[C@](N)(COP(=O)(O)O)C3)ccc2C1`, the EC50 entry was “in the range around 0.055 µM”.

With `CCCCCC[C@H]1COc2cc([C@H]3CC[C@](N)(COP(=O)(O)O)C3)ccc2C1`, the EC50 result was “in the range around 0.055 µM”.

The term EC50 denotes the concentration needed to bring the measured effect to its halfway point. A low value points to an effect from little substance.
